Source: ChEMBL document CHEMBL1201861, “Genomics of Drug Sensitity in Cancer screening data, Wellcome Trust Sanger Institute”

Assays:
Assay in all cases: cells
SK-MEL-30 = assay type: functional, cell-based; settings: Homo sapiens;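 further: growth inhibition of SK-MEL-30 cells, determined with a cell viability assay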
Description: SANGER: Inhibition of human SK-MEL-30 cell growth in a cell viability assay.

MFE-280 = assay type: functional, cell-based, Homo sapiens; settings: Homo sapiens, MFE-280;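 further: growth inhibition of MFE-280 cells, determined with a cell viability readout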
Description: SANGER: Inhibition of human MFE-280 cell growth in a cell viability assay.

KURAMOCHI = assay type: functional, cell-based; settings: Homo sapiens;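 further: growth inhibition of KURAMOCHI cells, read out with a cell viability assay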
Description: SANGER: Inhibition of human KURAMOCHI cell growth in a cell viability assay.

U2OS = assay type: functional, cell-based, Homo sapiens, U-2-OS; settings: Homo sapiens, U2OS;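 further: growth inhibition of human U-2-OS cells, determined with a cell viability assay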
Description: SANGER: Inhibition of human U-2-OS cell growth in a cell viability assay.

ACHN = assay type: functional, cell-based, Homo sapiens; settings: Homo sapiens, ACHN;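 further: cell viability read-out used to gauge how strongly growth of human ACHN cells is suppressed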
Description: SANGER: Inhibition of human ACHN cell growth in a cell viability assay.

SAOS-2 = assay type: functional, cell-based, Homo sapiens; settings: Homo sapiens, SAOS-2;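 further: growth inhibition of human Saos-2 cells determined by a cell viability assay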
Description: SANGER: Inhibition of human Saos-2 cell growth in a cell viability assay.

EFM-19 = assay type: functional, cell-based, Homo sapiens; settings: Homo sapiens, EFM-19;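 further: growth inhibition of human EFM-19 cells, measured in a cell viability assay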
Description: SANGER: Inhibition of human EFM-19 cell growth in a cell viability assay.

KYSE-150 cell line = assay type: functional, cell-based, Homo sapiens; settings: Homo sapiens, KYSE-150;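 further: growth inhibition of human KYSE-150 cells, read out with a cell viability assay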
Description: SANGER: Inhibition of human KYSE-150 cell growth in a cell viability assay.

BT-20 = assay type: functional, cell-based, Homo sapiens; settings: Homo sapiens, BT-20;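 further: cell viability assay measuring suppression of growth in human BT-20 cells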
Description: SANGER: Inhibition of human BT-20 cell growth in a cell viability assay.

NCI-H446 = assay type: functional, cell-based; settings: Homo sapiens;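 further: growth inhibition of NCI-H446 cells determined by a cell viability assay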
Description: SANGER: Inhibition of human NCI-H446 cell growth in a cell viability assay.

NCI-H2342 = assay type: functional, cell-based; settings: Homo sapiens;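 further: growth inhibition of the cancer cell line, determined with a cell viability assay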
Description: SANGER: Inhibition of human NCI-H2342 cell growth in a cell viability assay.

HEL = assay type: functional, cell-based, Homo sapiens; settings: Homo sapiens, HEL;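 further: growth inhibition of HEL cells, read out with a cell viability assay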
Description: SANGER: Inhibition of human HEL cell growth in a cell viability assay.

A101D = assay type: functional, cell-based, Homo sapiens; settings: Homo sapiens, A101D;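 further: growth inhibition of the cell line, measured with a viability assay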
Description: SANGER: Inhibition of human A101D cell growth in a cell viability assay.

LS-411N = assay type: functional, cell-based, Homo sapiens; settings: Homo sapiens, LS-411N
SW837 = assay type: functional, cell-based, Homo sapiens; settings: Homo sapiens, SW837;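 further: growth inhibition of SW837 cells, determined with a cell viability assay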
Description: SANGER: Inhibition of human SW837 cell growth in a cell viability assay.

SBC-1 = assay type: functional, cell-based; settings: Homo sapiens;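 further: cell viability assay measuring growth inhibition of the SBC-1 cell line, IC50 being the concentration that halves growth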
Description: SANGER: Inhibition of human SBC-1 cell growth in a cell viability assay.

JVM-2 = assay type: functional, cell-based; settings: Homo sapiens;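 further: growth inhibition of JVM-2 cells determined by a cell viability assay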
Description: SANGER: Inhibition of human JVM-2 cell growth in a cell viability assay.

HOP-92 = assay type: functional, cell-based, Homo sapiens; settings: Homo sapiens, HOP-92;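 further: cell viability readout, with IC50 reflecting inhibition of HOP-92 cell growth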
Description: SANGER: Inhibition of human HOP-92 cell growth in a cell viability assay.

NCI-H1623 = assay type: functional, cell-based, Homo sapiens; settings: Homo sapiens, NCI-H1623;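 further: cell viability assay used as the read-out for growth inhibition of NCI-H1623 cells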
Description: SANGER: Inhibition of human NCI-H1623 cell growth in a cell viability assay.

SNU-387 = assay type: functional, cell-based, Homo sapiens; settings: Homo sapiens, SNU-387
Description: SANGER: Inhibition of human SNU-387 cell growth in a cell viability assay.

MFM-223 = assay type: functional, cell-based, Homo sapiens; settings: Homo sapiens, MFM-223
Description: SANGER: Inhibition of human MFM-223 cell growth in a cell viability assay.

VM-CUB-1 = assay type: functional, cell-based; settings: Homo sapiens;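 further: cell viability assay measuring growth inhibition of the human VM-CUB-1 cell line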
Description: SANGER: Inhibition of human VM-CUB-1 cell growth in a cell viability assay.

HT-144 = assay type: functional, cell-based, Homo sapiens; settings: Homo sapiens, HT-144
Description: SANGER: Inhibition of human HT-144 cell growth in a cell viability assay.

ES6 = assay type: functional, cell-based, Homo sapiens; settings: Homo sapiens, ES6;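 further: growth inhibition of human ES6 cells, read out with a cell viability assay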
Description: SANGER: Inhibition of human ES6 cell growth in a cell viability assay.

HCC1569 = assay type: functional, cell-based, Homo sapiens; settings: Homo sapiens, HCC1569;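 further: growth inhibition of human HCC1569 cells, read out with a cell viability assay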
Description: SANGER: Inhibition of human HCC1569 cell growth in a cell viability assay.

NCI-H1650 = assay type: functional, cell-based, Homo sapiens; settings: Homo sapiens, NCI-H1650;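 further: growth inhibition of human NCI-H1650 cells measured by a cell viability assay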
Description: SANGER: Inhibition of human NCI-H1650 cell growth in a cell viability assay.

LB2518-MEL = assay type: functional, cell-based, Homo sapiens; settings: Homo sapiens, LB2518-MEL;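 further: growth inhibition of human LB2518-MEL cells, measured with a cell viability assay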
Description: SANGER: Inhibition of human LB2518-MEL cell growth in a cell viability assay.

DOHH-2 = assay type: functional, cell-based; settings: Homo sapiens;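 further: growth inhibition of human DOHH-2 cells, read out with a cell viability assay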
Description: SANGER: Inhibition of human DOHH-2 cell growth in a cell viability assay.

JEG-3 = assay type: functional, cell-based, Homo sapiens; settings: Homo sapiens, JEG-3;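 further: growth inhibition of human JEG-3 cells, read out with a cell viability assay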
Description: SANGER: Inhibition of human JEG-3 cell growth in a cell viability assay.

DB = assay type: functional, cell-based; settings: Homo sapiens
Description: SANGER: Inhibition of human DB cell growth in a cell viability assay.

MZ1-PC = assay type: functional, cell-based, Homo sapiens; settings: Homo sapiens, MZ1-PC;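 further: cell viability assay measuring growth inhibition of human MZ1-PC cells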
Description: SANGER: Inhibition of human MZ1-PC cell growth in a cell viability assay.

CTV-1 = assay type: functional, cell-based; settings: Homo sapiens;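 further: growth inhibition of the cell line, read out with a cell viability assay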
Description: SANGER: Inhibition of human CTV-1 cell growth in a cell viability assay.

GI-1 = assay type: functional, cell-based, Homo sapiens; settings: Homo sapiens, GI-1;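 further: growth inhibition of human GI-1 cells, measured with a cell viability readout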
Description: SANGER: Inhibition of human GI-1 cell growth in a cell viability assay.

SW1417 = assay type: functional, cell-based, Homo sapiens; settings: Homo sapiens, SW1417;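 further: growth inhibition of human SW1417 cells, read out with a cell viability assay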
Description: SANGER: Inhibition of human SW1417 cell growth in a cell viability assay.

NMC-G1 = assay type: functional, cell-based, Homo sapiens; settings: Homo sapiens, NMC-G1;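 further: growth inhibition of the NMC-G1 cell line, measured with a cell viability read-out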
Description: SANGER: Inhibition of human NMC-G1 cell growth in a cell viability assay.

KARPAS-45 = assay type: functional, cell-based; settings: Homo sapiens;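 further: inhibition of cell line growth, read out through a viability assay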
Description: SANGER: Inhibition of human KARPAS-45 cell growth in a cell viability assay.

HSC-2 = assay type: functional, cell-based, Homo sapiens; settings: Homo sapiens, HSC-2;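 further: growth inhibition of human HSC-2 cells, read out by a cell viability assay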
Description: SANGER: Inhibition of human HSC-2 cell growth in a cell viability assay.

NCI-H441 = assay type: functional, cell-based; settings: Homo sapiens;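 further: growth inhibition of NCI-H441 cells, read out with a cell viability assay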
Description: SANGER: Inhibition of human NCI-H441 cell growth in a cell viability assay.

SNU-5 = assay type: functional, cell-based; settings: Homo sapiens;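 further: cell viability readout used to measure growth inhibition in human NCI-SNU-5 cells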
Description: SANGER: Inhibition of human NCI-SNU-5 cell growth in a cell viability assay.

PFSK-1 = assay type: functional, cell-based, Homo sapiens; settings: Homo sapiens, PFSK-1;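 further: cell viability assay measuring how strongly compounds suppress growth of human PFSK-1 cells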
Description: SANGER: Inhibition of human PFSK-1 cell growth in a cell viability assay.

KYSE-410 = assay type: functional, cell-based, Homo sapiens; settings: Homo sapiens, KYSE-410;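 further: growth inhibition of KYSE-410 cells, measured through a cell viability readout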
Description: SANGER: Inhibition of human KYSE-410 cell growth in a cell viability assay.

SK-LU-1 = assay type: functional, cell-based, Homo sapiens; settings: Homo sapiens, SK-LU-1;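 further: cell viability assay measuring growth inhibition of human SK-LU-1 cells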
Description: SANGER: Inhibition of human SK-LU-1 cell growth in a cell viability assay.

MN-60 = assay type: functional, cell-based; settings: Homo sapiens;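 further: growth inhibition of the MN-60 cell line, determined with a cell viability assay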
Description: SANGER: Inhibition of human MN-60 cell growth in a cell viability assay.

OVCAR-4 = assay type: functional, cell-based, Homo sapiens; settings: Homo sapiens, OVCAR-4;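 further: growth inhibition of human OVCAR-4 cells, measured with a cell viability assay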
Description: SANGER: Inhibition of human OVCAR-4 cell growth in a cell viability assay.

NCI-H1648 = assay type: functional, cell-based, Homo sapiens; settings: Homo sapiens, NCI-H1648;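 further: cell viability assay measuring inhibition of NCI-H1648 cell growth, from the Sanger screening data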
Description: SANGER: Inhibition of human NCI-H1648 cell growth in a cell viability assay.

8505C = assay type: functional, cell-based, Homo sapiens; settings: Homo sapiens, 8505C
Description: SANGER: Inhibition of human 8505C cell growth in a cell viability assay.

IA-LM = assay type: functional, cell-based, Homo sapiens; settings: Homo sapiens, IA-LM;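 further: cell viability assay measuring growth inhibition of human IA-LM cells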
Description: SANGER: Inhibition of human IA-LM cell growth in a cell viability assay.

ES4 = assay type: functional, cell-based, Homo sapiens; settings: Homo sapiens, ES4;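 further: growth inhibition of human ES4 cells, read out by a cell viability assay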
Description: SANGER: Inhibition of human ES4 cell growth in a cell viability assay.

SW626 = assay type: functional, cell-based, Homo sapiens; settings: Homo sapiens, SW626;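 further: growth inhibition of SW626 cells, measured with a cell viability assay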
Description: SANGER: Inhibition of human SW626 cell growth in a cell viability assay.

LCLC-97TM1 = assay type: functional, cell-based, Homo sapiens; settings: Homo sapiens, LCLC-97TM1;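 further: cell viability assay measuring growth inhibition of human LCLC-97TM1 cells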
Description: SANGER: Inhibition of human LCLC-97TM1 cell growth in a cell viability assay.

HT = assay type: functional, cell-based; settings: Homo sapiens
Description: SANGER: Inhibition of human HT cell growth in a cell viability assay.

NCI-H720 = assay type: functional, cell-based; settings: Homo sapiens;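 further: growth inhibition of human NCI-H720 cells determined by a cell viability assay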
Description: SANGER: Inhibition of human NCI-H720 cell growth in a cell viability assay.

8-MG-BA = assay type: functional, cell-based, Homo sapiens; settings: Homo sapiens, 8-MG-BA;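 further: growth inhibition of 8-MG-BA cells, read out with a cell viability assay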
Description: SANGER: Inhibition of human 8-MG-BA cell growth in a cell viability assay.

With `CCOc1nc(NC(=O)Cc2cc(OC)ccc2OC)cc(N)c1C#N` the IC50 (SK-MEL-30) was over 10 µM, the IC50 (MFE-280) was over 10 µM and the IC50 (KURAMOCHI) was over 10 µM. The IC50 (U2OS) was over 10 µM, the IC50 (ACHN) was over 10 µM and the IC50 (SAOS-2) was over 10 µM. For the same compound, the IC50 (EFM-19) was over 10 µM, the IC50 (KYSE-150 cell line) was over 10 µM and the IC50 (BT-20) was over 10 µM. It also gave an IC50 (NCI-H446) of over 10 µM, an IC50 (NCI-H2342) of over 10 µM and an IC50 (HEL) of over 10 µM. It also gave an IC50 (A101D) of over 10 µM, an IC50 (LS-411N) of over 10 µM and an IC50 (SW837) of over 10 µM. For the same compound, the IC50 (SBC-1) was over 10 µM, the IC50 (JVM-2) was over 10 µM and the IC50 (HOP-92) was over 10 µM. For the same compound, the IC50 (NCI-H1623) was over 10 µM, the IC50 (SNU-387) was over 10 µM and the IC50 (MFM-223) was over 10 µM. For the same compound, the IC50 (VM-CUB-1) was over 10 µM, the IC50 (HT-144) was over 10 µM and the IC50 (ES6) was over 10 µM. For the same compound, the IC50 (HCC1569) was over 10 µM, the IC50 (NCI-H1650) was over 10 µM and the IC50 (LB2518-MEL) was over 10 µM. The IC50 (DOHH-2) was over 10 µM, the IC50 (JEG-3) was over 10 µM and the IC50 (DB) was over 10 µM. It also gave an IC50 (MZ1-PC) of over 10 µM, an IC50 (CTV-1) of over 10 µM and an IC50 (GI-1) of over 10 µM. For the same compound, the IC50 (SW1417) was over 10 µM, the IC50 (NMC-G1) was over 10 µM and the IC50 (KARPAS-45) was over 10 µM. The IC50 (HSC-2) was over 10 µM, the IC50 (NCI-H441) was over 10 µM and the IC50 (SNU-5) was over 10 µM. It also gave an IC50 (PFSK-1) of over 10 µM, an IC50 (KYSE-410) of over 10 µM and an IC50 (SK-LU-1) of over 10 µM. The IC50 (MN-60) was over 10 µM, the IC50 (OVCAR-4) was over 10 µM and the IC50 (NCI-H1648) was over 10 µM. It also gave an IC50 (8505C) of over 10 µM, an IC50 (IA-LM) of over 10 µM and an IC50 (ES4) of over 10 µM. For the same compound, the IC50 (SW626) was over 10 µM, the IC50 (LCLC-97TM1) was over 10 µM and the IC50 (HT) was over 10 µM. It also gave an IC50 (NCI-H720) of over 10 µM and an IC50 (8-MG-BA) of over 10 µM.

`O=C1N=C(NCc2cccs2)S/C1=C\c1ccc2ncccc2c1` showed an IC50 (SK-MEL-30) of over 5 µM, an IC50 (MFE-280) of over 5 µM and an IC50 (KURAMOCHI) of over 5 µM. It also gave an IC50 (U2OS) of over 5 µM, an IC50 (ACHN) of over 5 µM and an IC50 (SAOS-2) of over 5 µM. It also gave an IC50 (EFM-19) of over 5 µM, an IC50 (KYSE-150 cell line) of over 5 µM and an IC50 (BT-20) of over 5 µM. The IC50 (NCI-H446) was over 5 µM, the IC50 (NCI-H2342) was over 5 µM and the IC50 (HEL) was over 5 µM. For the same compound, the IC50 (A101D) was over 5 µM, the IC50 (LS-411N) was over 5 µM and the IC50 (SW837) was over 5 µM. The IC50 (SBC-1) was over 5 µM, the IC50 (JVM-2) was over 5 µM and the IC50 (HOP-92) was over 5 µM. It also gave an IC50 (NCI-H1623) of over 5 µM, an IC50 (SNU-387) of over 5 µM and an IC50 (MFM-223) of over 5 µM. It also gave an IC50 (VM-CUB-1) of over 5 µM, an IC50 (HT-144) of over 5 µM and an IC50 (ES6) of over 5 µM. The IC50 (HCC1569) was over 5 µM, the IC50 (NCI-H1650) was over 5 µM and the IC50 (LB2518-MEL) was over 5 µM. It also gave an IC50 (DOHH-2) of over 5 µM, an IC50 (JEG-3) of over 5 µM and an IC50 (DB) of over 5 µM. The IC50 (MZ1-PC) was over 5 µM, the IC50 (CTV-1) was over 5 µM and the IC50 (GI-1) was over 5 µM. It also gave an IC50 (SW1417) of over 5 µM, an IC50 (NMC-G1) of over 5 µM and an IC50 (KARPAS-45) of over 5 µM. The IC50 (HSC-2) was over 5 µM, the IC50 (NCI-H441) was over 5 µM and the IC50 (SNU-5) was over 5 µM. For the same compound, the IC50 (PFSK-1) was over 5 µM, the IC50 (KYSE-410) was over 5 µM and the IC50 (SK-LU-1) was over 5 µM. The IC50 (MN-60) was 4.38 µM, the IC50 (OVCAR-4) was over 5 µM and the IC50 (NCI-H1648) was over 5 µM. It also gave an IC50 (8505C) of over 5 µM, an IC50 (IA-LM) of over 5 µM and an IC50 (ES4) of over 5 µM. For the same compound, the IC50 (SW626) was over 5 µM, the IC50 (LCLC-97TM1) was over 5 µM and the IC50 (HT) was over 5 µM. For the same compound, the IC50 (NCI-H720) was over 5 µM and the IC50 (8-MG-BA) was 3.14 µM.
